Target: GABA-A receptor; anion channel
Assay: Displacement of [3H]flunitrazepine binding from GABA-A central benzodiazepine receptor of rat cerebral cortical membrane

Going from `O=c1cc(-c2ccccc2[N+](=O)[O-])oc2ccc([N+](=O)[O-])cc12` to `O=c1cc(-c2ccccc2[N+](=O)[O-])oc2ccc(Br)cc12`, the Ki falls from greater than 10000 nM to 208 nM. The second binds more tightly here.

`O=c1cc(-c2ccccc2)oc2ccc([N+](=O)[O-])cc12` and `O=c1cc(-c2cccc([N+](=O)[O-])c2)oc2ccccc12` are within 1.5-fold of each other in Ki: 275 nM for the first, 285 nM for the second.

Compared with `O=c1cc(-c2cccc([N+](=O)[O-])c2)oc2ccc([N+](=O)[O-])cc12`, `O=c1cc(-c2ccc([N+](=O)[O-])cc2)oc2ccc([N+](=O)[O-])cc12` is higher in Ki: 26 nM for the first, greater than 10000 nM for the second.

First: O=c1cc(-c2ccc(Br)cc2)oc2ccccc12
Second: O=c1cc(-c2cccc(Br)c2)oc2ccccc12
The Ki of the first is higher: greater than 20000 nM for the first, 413 nM for the second.

Going from `O=c1cc(-c2ccccc2[N+](=O)[O-])oc2ccccc12` to `O=c1cc(-c2ccccc2)oc2ccccc12` [FLAVONE], the Ki falls from greater than 20000 nM to 1000 nM.

`O=c1cc(-c2cccc(Br)c2)oc2ccc(Br)cc12` and `O=c1cc(-c2cccc(Br)c2)oc2ccc([N+](=O)[O-])cc12` are within 1.5-fold of each other in Ki: 19 nM for the first, 25 nM for the second.

Going from `O=c1cc(-c2ccc([N+](=O)[O-])cc2)oc2ccc(Br)cc12` to `O=c1cc(-c2ccccc2)oc2ccc(Br)cc12` [6-BROMOFLAVONE], the Ki falls from 200 nM to 75 nM (2.7-fold).

Compared with `O=c1cc(-c2cccc([N+](=O)[O-])c2)oc2ccc(F)cc12`, `O=c1cc(-c2cccc([N+](=O)[O-])c2)oc2ccc(Cl)cc12` is 22-fold lower in Ki: 180 nM for the first, 8 nM for the second. The second binds more tightly here.

Compared with `O=c1cc(-c2cccc(Cl)c2)oc2ccccc12`, `O=c1cc(-c2ccccc2)oc2ccc(Cl)cc12` [6-CHLOROFLAVONE] is 3.7-fold lower in Ki: 614 nM for the first, 164 nM for the second.

`O=c1c(Br)c(-c2cccc([N+](=O)[O-])c2)oc2ccccc12` and `O=c1c(Br)c(-c2ccccc2)oc2ccccc12` cannot be ordered by Ki: greater than 20000 nM for the first, greater than 75000 nM for the second.

Compared with `O=c1c(Br)c(-c2ccccc2)oc2ccc(Br)cc12`, `O=c1cc(-c2ccccc2)oc2ccc(F)cc12` is lower in Ki: greater than 75000 nM for the first, 4500 nM for the second.

With `O=c1cc(-c2cc([N+](=O)[O-])cc([N+](=O)[O-])c2)oc2ccccc12` the Ki was greater than 20000 nM.

From ChEMBL document CHEMBL1130499, “Synthesis of halogenated/nitrated flavone derivatives and evaluation of their affinity for the central benzodiazepine receptor” (Bioorg Med Chem Lett, 1997)
